Where “and” joins values, the source holds several entries; their conditions need not be identical. Equal values may be shown once.
Experiments:
Format in all cases: cell-based
320 non-olfactory GPCRs [1] = target: T1, 320 non-olfactory GPCRs (Homo sapiens, UniProt P34995); conditions: receptor PTGER1; replicate values, Fig_4g
T1 construct: expressed in transfected cells; host or cells: HTLA cells

320 non-olfactory GPCRs [2] = target: T2, 320 non-olfactory GPCRs (Homo sapiens, UniProt P23945)
T2 construct: expressed in transfected cells; host or cells: HTLA cells
T2 sequence (P23945 18-695): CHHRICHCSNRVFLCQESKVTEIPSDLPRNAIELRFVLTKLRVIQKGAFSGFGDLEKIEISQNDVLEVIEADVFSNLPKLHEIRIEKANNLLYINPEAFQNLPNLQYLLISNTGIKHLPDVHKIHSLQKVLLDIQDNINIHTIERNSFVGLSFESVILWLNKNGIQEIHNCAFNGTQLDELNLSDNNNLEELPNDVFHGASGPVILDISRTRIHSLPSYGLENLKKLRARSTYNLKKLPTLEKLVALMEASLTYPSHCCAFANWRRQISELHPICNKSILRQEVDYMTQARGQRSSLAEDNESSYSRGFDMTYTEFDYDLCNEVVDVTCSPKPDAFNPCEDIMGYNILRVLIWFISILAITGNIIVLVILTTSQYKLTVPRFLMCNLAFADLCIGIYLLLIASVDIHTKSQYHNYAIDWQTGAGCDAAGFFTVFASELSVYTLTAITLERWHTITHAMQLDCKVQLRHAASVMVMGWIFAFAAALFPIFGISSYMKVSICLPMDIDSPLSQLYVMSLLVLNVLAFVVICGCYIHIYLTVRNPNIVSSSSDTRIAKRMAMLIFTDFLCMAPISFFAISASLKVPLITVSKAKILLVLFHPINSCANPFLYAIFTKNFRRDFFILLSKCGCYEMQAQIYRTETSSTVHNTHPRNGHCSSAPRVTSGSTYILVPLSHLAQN

320 non-olfactory GPCRs [3] = target: T3, 320 non-olfactory GPCRs (Homo sapiens, UniProt Q9BPV8); conditions: receptor P2RY13; replicate values, Fig_4g
T3 construct: expressed in transfected cells; host or cells: HTLA cells
T3 sequence (Q9BPV8 whole entry): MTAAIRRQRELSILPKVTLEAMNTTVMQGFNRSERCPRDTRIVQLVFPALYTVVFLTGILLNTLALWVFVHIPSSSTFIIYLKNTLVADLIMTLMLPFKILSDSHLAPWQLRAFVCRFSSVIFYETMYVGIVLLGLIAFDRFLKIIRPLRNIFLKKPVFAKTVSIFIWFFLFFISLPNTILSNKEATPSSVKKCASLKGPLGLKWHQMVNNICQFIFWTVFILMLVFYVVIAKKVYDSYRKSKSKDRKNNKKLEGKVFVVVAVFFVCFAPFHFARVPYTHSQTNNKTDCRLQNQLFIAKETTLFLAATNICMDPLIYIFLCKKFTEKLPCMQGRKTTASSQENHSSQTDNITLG

320 non-olfactory GPCRs [4] = target: T4, 320 non-olfactory GPCRs (Homo sapiens, UniProt P41968); conditions: receptor MC3Rb; replicate values, Fig_4g
T4 construct: expressed in transfected cells; host or cells: HTLA cells
T4 sequence (P41968 whole entry): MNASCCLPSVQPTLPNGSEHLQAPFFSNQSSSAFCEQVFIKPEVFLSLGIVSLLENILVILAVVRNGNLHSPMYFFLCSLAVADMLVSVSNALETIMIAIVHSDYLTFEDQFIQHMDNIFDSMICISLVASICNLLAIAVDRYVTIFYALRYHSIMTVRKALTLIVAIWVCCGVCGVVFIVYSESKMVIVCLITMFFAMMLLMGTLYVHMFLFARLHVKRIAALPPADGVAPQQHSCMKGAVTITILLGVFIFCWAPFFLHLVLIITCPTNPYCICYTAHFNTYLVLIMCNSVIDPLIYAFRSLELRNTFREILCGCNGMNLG
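Wherever Fold of Basal is given: compound tested at 1 µM final concentration.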
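Wherever GPCRome agonism screen response is given: fold over basal response of each receptor without drug.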

T1 sequence (P34995 whole entry): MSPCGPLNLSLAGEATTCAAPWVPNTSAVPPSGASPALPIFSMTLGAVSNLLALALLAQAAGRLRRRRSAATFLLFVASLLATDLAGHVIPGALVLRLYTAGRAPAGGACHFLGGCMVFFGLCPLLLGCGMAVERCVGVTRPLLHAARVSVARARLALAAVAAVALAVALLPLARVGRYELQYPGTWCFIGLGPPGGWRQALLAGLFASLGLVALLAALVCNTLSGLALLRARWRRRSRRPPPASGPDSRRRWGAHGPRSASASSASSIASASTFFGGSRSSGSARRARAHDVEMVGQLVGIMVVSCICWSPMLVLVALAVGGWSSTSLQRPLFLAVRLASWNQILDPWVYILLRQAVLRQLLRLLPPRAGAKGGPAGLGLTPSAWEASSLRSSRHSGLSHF

CCOc1cccc2cc(C(C)NCC3(O)CCCCC3)oc12 (stereo not shown) [O4LE6]
GPCRome agonism screen response (320 non-olfactory GPCRs [1]): 0.6283 and 0.5508 and 0.6804 and 0.7397 | Fold of Basal (320 non-olfactory GPCRs [2]): 0.5729 and 0.6139 and 0.617 and 0.5943 | GPCRome agonism screen response (320 non-olfactory GPCRs [3]): 0.7893 and 1.044 and 0.6466 and 2.085 | GPCRome agonism screen response (320 non-olfactory GPCRs [4]): 1.102 and 1.23 and 1.725 and 1.228

Source: PMC7044277 (Nature Communications, 2020)
